Test results as given in patent publication US20210002611A1, “IMPROVED ALPHA-BETA T PROCESSED CELL PRODUCTION METHOD” (OSAKA UNIVERSITY, priority 2018, published 2021).

Experiments:
K562 cells = test: Degranulation: CD107a exposure on CD8+ T cells in co-culture with cancer cells; format: cell-based, human; conditions: co-culture with K562 cells 25:1, 6 hours
Text: (§1) In the αβ T processed cells treated with 2DG as described above, secretions of effector factors such as cytokines, perforin, and granzyme B were promoted, and the cytotoxic activity was enhanced. Since exposure of CD107a localized in an intracellular vesicle onto the cell surface serves as an index of degranulation for the release of an effector factor from a cytotoxic T cell or a NK cell, the exposure of CD107a onto the cell surface by co-culture with cancer cells having different cytotoxicity was detected.
(§2) In the presence of APC-labeled anti-CD107a antibodies (BioLegend, Inc.), the αβ T processed cells and cancer cells were mixed at a ratio of 25:1, and the mixed cells were cultured for 6 hours. After the washing of the cultured cells, the washed cells were stained with PE-labeled anti-CD8 antibodies (Beckman Coulter, Inc.). The cells thus stained were subjected to measurement by using a flow cytometer FACS CantoII (BD Biosciences), and the obtained data were analyzed by using Kaluza (Beckman Coulter, Inc.) software (FIG. 2D).

Daudi cells = test: as above; format: cell-based, human; conditions: co-culture with Daudi cells 25:1, 6 hours
Text: as §1, §2

αβ T processed cells [1] = test: Cytokine production of αβ T processed cells (Bio-plex); format: cell-based, human; conditions: culture supernatant after 24 hours in RPMI 1640 + 10% FCS without IL-2; 4 healthy donor samples; vs cont
Description: The cytokine production ability of the αβ T processed cells prepared in Example 1 was determined by using Bio-plex “human cytokine G1 27 plex panel” (Bio-Rad Laboratories, Inc.) (FIG. 2A). Specifically, the αβ T processed cells prepared in Example 1 were replaced in a medium containing RPMI 1640 and 10% FCS in the absence of IL-2, and cultured. The culture supernatant after 24 hours from the start of the culture was recovered, and subjected to measurement.

αβ T processed cells [2] = test: Perforin and granzyme B in culture supernatant after PMA/ionomycin stimulation (ELISA); format: cell-based, human; conditions: after PMA (5 ng/ml) and ionomycin (0.5 μg/ml) stimulation; 4 healthy donor samples; vs cont
Description: Furthermore, perforin and granzyme B in the culture supernatant after the degranulation due to the PMA (5 ng/ml) and ionomycin (0.5 μg/ml) stimulation were determined by using Human Perforin ELISA Kit and Human Granzyme B ELISA Kit (Abcam plc.), respectively (FIG. 2B).

[3] = tested on: Daudi (Burkitt's lymphoma cell line); test: In vitro cytotoxic activity against cultured cells (Calcein-AM, Terascan); format: cell-based, human; conditions: cancer cells:αβ T processed cells 1:25, 2 to 4 hours; vs conventional method
Description: (§3) The cytotoxic activity test by fluorescent staining was performed by using Terascan VPC2 (Minerva Tech K.K.). Cancer cell line K562 (leukemia cell line), Daudi (Burkitt's lymphoma cell line), and HOS (osteosarcoma cell line), and DLD1 (colon cancer cell line) were labeled for 30 minutes with 2.55 to 5 μg/mL of fluorescent dye Cellstein R-Calcein-AM solution (DOJINDO LABORATORIES). The labeled cancer cells and the αβ T processed cells were mixed at a ratio of 1:25, and the mixed cells were incubated for 2 to 4 hours in RPMI 1640 and 10% FBS (in the absence of IL-2). The cytotoxic activity was calculated by using changes in the fluorescence intensity of the cancer cells co-cultured with the αβ T processed cells as an index, assuming the fluorescence decay rate when treated with 1% NP40 (surfactant) as 100% (FIG. 2C).

galectin-3 = test: Galectin-3 binding ability of αβ T processed cells (flow cytometry); format: cell-based; conditions: cells cultured with 0 to 4 mM of 2DG; recombinant galectin-3, 4° C., 30 minutes; vs cont
Description: The galectin-3 binding ability was detected with FITC-labeled anti-mouse IgG antibodies (Jackson ImmunoResearch Laboratories, Inc.). In this regard, as an experimental control of the galectin-3 binding, addition of 0.1 M of lactose (Sigma-Aldrich Co. LLC) for inhibiting the binding of galectin to sugar chains was performed. The measurement was performed by using a flow cytometer FACS CantoII (BD Biosciences), and the data were analyzed by using Kaluza (Beckman Coulter, Inc.) software.

[4] = tested on: sugar chains of αβ T processed cells; test: LC-MS mass spectrometry analysis of sugar chains on cell surface; format: cell-based, human; conditions: summary of Table 1
Text: From the αβ T processed cells, sugar chains were purified and labeled by using BlotGlyco (Sumitomo Bakelite Co., Ltd.), and then the purified and labeled sugar chains were subjected to LC-MS mass spectrometry analysis (FIG. 5A).

αβ T processed cells [5] = test: Intracellular perforin production in αβ T processed cells (flow cytometry, MFI); format: cell-based, human; conditions: 2 mM D-mannose or L-mannose added to the culture with 2 mM 2DG; for Intracellular granzyme B: data not shown
Description: Next, it was verified whether or not mannose inhibited the increase in the amount of intracellular perforin of the αβ T processed cells treated with 2DG. In the preparation of Example 1, αβ T processed cells were prepared with the addition of 2 mM of D-mannose (Sigma-Aldrich Co. LLC) or L-mannose (Tokyo Chemical Industry Co., Ltd.), the prepared cells were treated with IntraPrep Permeabilization Reagent (Beckman Coulter, Inc.), and the expression level of the intracellular perforin was determined by staining the cells with APC-labeled anti-perforin antibodies. The stained cells were subjected to measurement by using a flow cytometer FACS CantoII (BD Biosciences), and the data were analyzed by using Kaluza (Beckman Coulter, Inc.) software. The Mean Fluorescence Intensity (MFI) value is mean fluorescence intensity, and reflects the expression level.

cancer cells [6] = test: Suppression of cytotoxic activity of 2DG-treated αβ T processed cells by D-mannose; format: cell-based, human; conditions: 2 mM D-mannose or L-mannose added to the culture with 2 mM 2DG
Description: as §3
Therefore, it was investigated whether or not the cytotoxic activity ability was suppressed by adding D-mannose to the processing of αβ T cells treated with 2DG.
In the preparation of Example 1, αβ T processed cells were prepared with the addition of 2 mM of D-mannose (Sigma-Aldrich Co. LLC) or L-mannose (Tokyo Chemical Industry Co., Ltd.), and the prepared αβ T processed cells were subjected to the measurement of cytotoxic activity by the method described in item 3.2.

cancer cells [7] = test: Cytotoxic activity of αβ T processed cells cultured with a glycolytic inhibitor; format: cell-based, human; conditions: cells prepared with oxamate (2 mM) or bromo pyruvate (10 μM); vs cells not treated with 2DG
Description: as §3
By using the method described in 3.2. of Example 3, the cytotoxic activity against each of cancer cells, by the αβ T processed cells treated with oxamate (2 mM) or bromo pyruvate (10 μM), which is a glycolytic inhibitor, was examined.

IL-2 receptor = IL-2 receptor expression on αβ T processed cells (flow cytometry); format: cell-based, human; conditions: cells cultured with 2DG and D-mannose
Description: It is known that the intracellular perforin and granzyme B in effector cells are induced and expressed by the stimulation from IL-2 receptor on a T cell. Therefore, the expression of the IL-2 receptor was confirmed. […] The obtained resuspension was passed through a cell strainer to remove aggregates. The obtained cells were incubated for 1 hour on ice, together with PE/Cy5-labeled anti-IL-2R antibodies (BioLegend, Inc.), and FITC-labeled anti-CD3 antibodies (Beckman Coulter, Inc.), and after the washing of the incubated cells, the measurement was performed by using a flow cytometer FACS Cantoll (BD Biosciences). The data were analyzed by using Kaluza (Beckman Coulter, Inc.) software.

OCC1O[C@H](O)C[C@@H](O)[C@@H]1O (mixture of isomers) [2DG, 2-deoxy-d-glucose]
Exposure of CD107a onto the cell surface (degranulation of CD8+ T cells) (K562 cells): promoted
Exposure of CD107a onto the cell surface (degranulation of CD8+ T cells) (Daudi cells): not promoted
Secretion of cytokines (IL-2, IFN-γ, TNFα) (αβ T processed cells [1]): increased by 2DG treatment in 3 cases out of 4 cases
Secretion of granzyme B (αβ T processed cells [2]): increased by 2DG treatment in 3 cases out of 4 cases
Secretion of perforin (αβ T processed cells [2]): increased by 2DG treatment in 3 cases out of 4 cases
Cytotoxic activity against Daudi [3]: had not been increased
Galectin-3 binding ability (galectin-3): reduced in a dose-dependent manner
Effect of 2DG treatment on N-glycans (sugar chain analysis) [4]: abnormal increase of the mature branched N-glycan in which deoxyhexose had been introduced

O=C[C@H](O)[C@H](O)[C@@H](O)[C@@H](O)CO [L-mannose]
Intracellular perforin expression level (MFI) (αβ T processed cells [5]): no influence
Intracellular granzyme B (αβ T processed cells [5]): the results were also similar
Cytotoxic activity of αβ T processed cells cultured with 2DG plus mannose (cancer cells [6]): no influence on the cytotoxic activity of 2DG

NC(=O)C(=O)O [oxamate]
Cytotoxic activity against cancer cells (cancer cells [7]): no enhancement of the cytotoxic activity was observed

O=C[C@@H](O)[C@@H](O)[C@H](O)[C@H](O)CO [D-mannose]
Intracellular perforin expression level (MFI) (αβ T processed cells [5]): reduced the effect of 2DG
Intracellular granzyme B (αβ T processed cells [5]): the results were also similar
Expression of the IL-2 receptor on a cell surface (IL-2 receptor): suppressed
Cytotoxic activity of αβ T processed cells cultured with 2DG plus mannose (cancer cells [6]): reduced the effect of 2DG
